Data taken from patent US20170342110A1, “GLYCOPEPTIDES AND USES THEREOF” (JAWAHARLAL NEHRU CENTRE FOR ADVANCED SCIENTIFIC RESEARCH …, priority 2014, published 2017).
Values after ≈ are worked out from the molar mass of the structure shown. Where two headings read alike, the source gives them in different places.

Assays:
[1] = test system: Vancomycin-resistant E. faecium (ATCC 51559); assay: Minimum inhibitory concentration, micro-dilution broth, VREm; assay type: cell-based; conditions: for MIC: Enterococcus faecium, read-out: Minimum Inhibitory Concentration VREm
Procedure: (§1) All test compounds were assayed in a micro-dilution broth format. Stock solutions were made by serially diluting the compounds using autoclaved millipore water or broth media. The antibacterial activity of the compounds was determined againstmethicillin-resistant S. aureus (MRSA), vancomycin-intermediate-resistant S. aureus (VISA), vancomycin-sensitive E. faecium (VSE), vancomycin-resistant E. faecalis and vancomycin-resistant E. faecium (VRE). Bacteria, to be tested, were grown for about 10 h in the suitable media, MSSA, MRSA and VISA were grown in […] (about 1 g of beef extract, about 2 g of yeast extract, about 5 g of peptone and about 5 g of NaCl in about 1000 mL of sterile distilled water (pH-7)). For solid media, about 5% agar was used along with above mentioned composition. VSE and VRE were cultured in Brain Heart Infusion broth (Himedia). The bacterial samples were freeze dried and stored at −80° C. About 5 μL of these stocks were added to about 3 mL of the nutrient broth or Brain Heart Infusion broth and the culture was grown for about 6 h at about 37° C. prior to the experiments. This 6 h grown culture gives about 10^9 cfu/mL and this was determined by spread plating method. The 6 h grown culture was diluted to give effective cell concentration of about 10^5 cfu/mL, which was then used for determining MIC. Compounds were serially diluted, in sterile water (2-fold dilution is employed) in a way that the working concentration was about 10 μM for MRSA, and VSE while for VRE and VISA it was about 100 μM. About 50 μL of these serial dilutions were added to the wells of 96 well plate followed by the addition of about 150 μL of bacterial solution. The plates were then incubated at about 37° C., 150 rpm in the incubator and O.D at 620 nm was recorded at an interval of about 24 h using TECAN (Infinite series, M200 pro) Plate Reader. Each concentration had triplicate values and the whole experiment was done at least twice and the MIC value was determined by taking the average of triplicate O. D. values for each concentration and plotting it against concentration. The data was then subjected to sigmoidal fitting.

[2] = test system: Vancomycin-resistant E. faecalis (VanA, ATCC 51575); assay: Minimum inhibitory concentration, micro-dilution broth, VREs; assay type: cell-based; conditions: Enterococcus faecalis, read-out: Minimum Inhibitory Concentration VREs
Procedure: as §1

[3] = test system: Vancomycin intermediate resistant S. aureus; assay: Minimum inhibitory concentration, micro-dilution broth, VISA; assay type: cell-based; conditions: Staphylococcus aureus, read-out: Minimum Inhibitory Concentration VISA
Procedure: as §1

[4] = test system: methicillin-resistant vancomycin intermediate S. aureus (MR-VISA); assay: Mouse neutropenic thigh infection model against MR-VISA; assay type: in vivo; conditions: neutropenic female CD-1 mice, 12 mg/kg intravenously, 24 h post first treatment
Procedure: In-vivo activity against methicillin-resistant vancomycin intermediate S. aureus (MR-VISA):
Mouse Neutropenic Thigh Infection Model:
About six-week-old, female CD-1 mice (weight, ˜19-24 g) were used for the experiments. The mice were rendered neutropenic (˜100 neutrophils/ml) by injecting two doses of cyclophosphamide intraperitoneally 4 days (150 mg/kg) and 1 day (100 mg/kg) before the infection experiment. 50 μL of […] concentration of the bacterial inoculum (MR-VISA) was injected into the thigh. One hour after inoculation, animals were treated intravenously with saline, vancomycin, linezolid and compound 14 at 12 mg/kg body weight. At 24 h post first treatment, cohorts of animals were euthanized (using ether) and the thighs were collected aseptically. […] The dilutions of the homogenate were plated onto agar plates, which were incubated overnight at 37° C. The bacterial titer was expressed as log10 CFU/g of thigh weight.

[5] = test system: Methicillin-resistant S. aureus (ATCC 33591); assay: Minimum inhibitory concentration, micro-dilution broth, MRSA; assay type: cell-based; conditions: Staphylococcus aureus, read-out: Minimum Inhibitory Concentration MRSA
Procedure: as §1

[6] = ATCC51559, E. faecium ATCC 51559, O.D. 620 nm at 24 h
[7] = ATCC51575, E. faecalis ATCC 51575, O.D. 620 nm at 24 h
[8] = MRSA ATCC 33591, O.D. 620 nm at 24 h

MIC [1, 6] [µM] | fold more active than vancomycin against VREm/VRE (MIC) ([1]; relative to vancomycin) [fold] | MIC [2, 7] [µM] | MIC ([3]; O.D. 620 nm at 24 h) [µM] | MIC [5, 8] [µM] | SMILES | reduction in bacterial count from the vehicle treated mice [4] [log10 CFU/g] | MIC ([1]; ATCC51559, 24 h) [µM] | MIC ([2]; ATCC51575, 24 h) [µM] | MIC ([3]; 24 h) [µM] | in-vivo antibacterial activity compared to vehicle treated mice (saline), in words [4] | MIC ([5]; 24 h) [µM]
0.3 |  | 1.3 | 0.09 | 0.2 | CCCCCCCCCC[n+]1ccc(CNC2(C)CC(OC3C(Oc4c5cc6cc4Oc4ccc(cc4Cl)C(O)C4NC(=O)[C@@H](NC(=O)[C@@H]6NC(=O)C(CC(N)=O)NC(=O)C(NC(=O)C(CC(C)C)NC)C(O)c6ccc(c(Cl)c6)O5)c5ccc(O)c(c5)-c5c(O)cc(O)cc5[C@@H](C(=O)NCCCNC(=O)C(O)C(O)C(O[C@H]5OC(CO)C(O)C(O)C5O)C(O)CO)NC4=O)OC(CO)C(O)C3O)OC(C)C2O)cc1 (some centres unmarked) [Compound 15] |  |  |  |  |  | 
0.37 |  | 1.11 | 0.31 | 0.28 | CCCCCCCCCCCC[n+]1ccc(CNC2(C)CC(OC3C(Oc4c5cc6cc4Oc4ccc(cc4Cl)C(O)C4NC(=O)[C@@H](NC(=O)[C@@H]6NC(=O)C(CC(N)=O)NC(=O)C(NC(=O)C(CC(C)C)NC)C(O)c6ccc(c(Cl)c6)O5)c5ccc(O)c(c5)-c5c(O)cc(O)cc5[C@@H](C(=O)NCCCNC(=O)C(O)C(O)C(OC5OC(CO)C(O)C(O)C5O)C(O)CO)NC4=O)OC(CO)C(O)C3O)OC(C)C2O)cc1 (some centres unmarked) [Compound 16] |  |  |  |  |  | 

More lines, now with the values behind:

SMILES | MIC [1, 6] [µM] | fold more active than vancomycin against VREm/VRE (MIC) ([1]; relative to vancomycin) [fold] | MIC [2, 7] [µM] | MIC ([3]; O.D. 620 nm at 24 h) [µM] | MIC [5, 8] [µM] | reduction in bacterial count from the vehicle treated mice [4] [log10 CFU/g] | MIC ([1]; ATCC51559, 24 h) [µM] | MIC ([2]; ATCC51575, 24 h) [µM] | MIC ([3]; 24 h) [µM] | in-vivo antibacterial activity compared to vehicle treated mice (saline), in words [4] | MIC ([5]; 24 h) [µM]
CCCCCCCC[n+]1ccc(CNC2(C)CC(OC3C(Oc4c5cc6cc4Oc4ccc(cc4Cl)C(O)C4NC(=O)[C@@H](NC(=O)[C@@H]6NC(=O)C(CC(N)=O)NC(=O)C(NC(=O)C(CC(C)C)NC)C(O)c6ccc(c(Cl)c6)O5)c5ccc(O)c(c5)-c5c(O)cc(O)cc5[C@@H](C(=O)NCCCNC(=O)C(O)C(O)C(O[C@H]5OC(CO)C(O)C(O)C5O)C(O)CO)NC4=O)OC(CO)C(O)C3O)OC(C)C2O)cc1 (some centres unmarked) [Compound 14] | 0.09 | > 7500 | 1.36 | 0.1 | 0.09 | ~6.0 |  |  |  |  | 
CNC(CC(C)C)C(=O)NC1C(=O)N[C@H](CC(N)=O)C(=O)N[C@H]2C(=O)N[C@H]3C(=O)NC(C(=O)N[C@@H](C(=O)O)c4cc(O)cc(O)c4-c4cc3ccc4O)C(O)c3ccc(c(Cl)c3)Oc3cc2cc(c3OC2OC(CO)C(O)C(O)C2OC2CC(C)(N)C(O)C(C)O2)Oc2ccc(cc2Cl)C1O (some centres unmarked) [Vancomycin, reference compound] |  |  |  |  |  |  | 750 (≈ 1090 µg/mL) | 250 (≈ 362 µg/mL) | 8 to 12 (≈ 11.6 to 17.4 µg/mL) | minimal or no activity | 0.78 (≈ 1.13 µg/mL)
CC(=O)NC[C@H]1CN(c2ccc(N3CCOCC3)c(F)c2)C(=O)O1 [linezolid] |  |  |  |  |  |  |  |  |  | minimal or no activity | 
